The values that follow come from paper PMC11891622 (Angewandte Chemie (International Ed. in English), 2025).

“Also recorded” adds a separate entry of the source. Read-outs that look alike come from different tables or passages of the source.

Assay [1] addresses SARS-CoV-2 Nucleocapsid protein N-terminal globular domain NTD (44–180) (Severe acute respiratory syndrome coronavirus 2, UniProt P0DTC9). It counts as binding.
In assay [2] the test system is SARS-CoV-2 Nucleocapsid protein NTR (1–248) (NTD plus two flanking IDRs). It counts as binding. As to conditions: for peaks of poly-L region (216–225): 0.25 equiv. of the chimaera.

Take “Ac‐Glu‐Gly‐Glu‐Gly‐Glu‐Gly‐Gly‐Glu‐gggg‐Glu‐Gly‐Gly‐Glu‐Gly‐Glu‐(β‐Ala)‐Glu [P-PNA]”: in assay [1], the “CSP magnitude, chimaera versus peptide P” value is reported as “CSP for the same residues are more pronounced in the case of the chimaera adduct; also recorded: chemical shift perturbation values are clearly higher for the chimeric molecule”; the “affinity compared with gRNA fragments / oligonucleotides” value is “despite larger, is not significantly distant from those reported in the literature for studies conducted with gRNA fragments; also recorded: lower than that of some oligonucleotides of similar length”; the “affinity compared with the peptide / chimaera counterpart” value was “superior affinity over the pure peptide precursor; also recorded: higher affinity for an RNA‐binding protein, such as the nucleocapsid protein of SARS‐CoV‐2, compared to a pure designed peptide”. Moreover, in assay [1] (pH 6.5), the “CSP pattern: location of most affected residues” value was “predominantly cluster within three main regions, as reported in Figure 2B and 2C, very similar to those identified when interacting with RNA”; the “exchange regime on the NMR time scale” value was “an interaction taking place in a fast exchange regime on the NMR time scale”. For the same substance, the “peaks of poly-L region (216–225)” value in assay [2] (70 µM NTR1-248, pH 6.5, 298 K, listed as P‐PNA) is on record as “several cross peaks disappearing at only 0.25 equiv. of ligand added”. In assay [2] (70 µM NTR1-248, pH 6.5, 298 K, listed as chimaera), the “peaks of poly-L region (216–225)” value is reported as “disappeared immediately after the addition of only 0.25 equiv. of the chimaera”. Besides, the “major CSPs on the NTD (44–180) region within NTR (1–248)” value in assay [2] (CSP at 1 equiv. P-PNA, 70 µM NTR1-248, pH 6.5, 298 K) was “identified once again in the basic finger of NTD (44–180)”. In addition, in assay [2] (NTR (1–248), comparison with ref [22], [24]), the “similarity of affected regions to those with RNA fragments” value is reported as “the regions that are most affected by the interaction are similar to those identified when studying the interaction of NTR (1–248) with RNA fragments”. In addition, the “most perturbed residues, IDR2 (181–248) SR-rich region (177–203)” value in assay [2] (pH 6.5) is “the SR‐rich region, which shows the highest CSP values; also recorded: The most perturbed residues are found in the SR‐rich region (177–203”. In addition, the “intensity of NTD (44–180) peaks within NTR (1–248)” value in assay [2] (upon addition of the chimaera, 70 µM NTR1-248, pH 6.5, 298 K) is “several peaks of NTD (44–180) decrease in intensity or disappear completely”.
